The values that follow come from patent US20170037028A1 (BAYER PHARMA AKTIENGESELLSCHAFT, priority 2013, published 2017).

This experiment concerns the target T1, GLUT1 (Homo sapiens, UniProt P11166).
T1 sequence (P11166 1-492): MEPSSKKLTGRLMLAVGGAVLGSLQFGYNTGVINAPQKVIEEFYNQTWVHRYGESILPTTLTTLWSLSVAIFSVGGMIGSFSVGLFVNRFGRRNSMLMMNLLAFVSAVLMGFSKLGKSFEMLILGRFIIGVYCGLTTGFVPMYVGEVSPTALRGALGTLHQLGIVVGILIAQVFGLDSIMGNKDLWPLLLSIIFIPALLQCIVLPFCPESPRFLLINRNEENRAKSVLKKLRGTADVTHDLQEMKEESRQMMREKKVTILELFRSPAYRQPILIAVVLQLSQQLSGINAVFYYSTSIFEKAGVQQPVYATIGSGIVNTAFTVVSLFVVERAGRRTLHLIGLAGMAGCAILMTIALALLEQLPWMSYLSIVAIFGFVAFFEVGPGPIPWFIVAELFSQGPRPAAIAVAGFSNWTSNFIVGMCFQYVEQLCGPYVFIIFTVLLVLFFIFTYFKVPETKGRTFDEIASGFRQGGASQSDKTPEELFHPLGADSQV
Nature of the experiment: Indirect measurement of GLUT1 activity by quantification of intracellular ATP levels (glucose induced ATP increase). In kind it is cell-based. Set-up: endogenous in cells; host or cells: DLD1 or CHO-K1. As to conditions: read-out: IC50 regarding glucose induced ATP increase (GLUT1 inhibition). The source says:
Indirect Measurement of GLUT1 and GLUT2 Activity by Quantification of Intracellular ATP Levels
It is well known that a combination of small-molecule inhibitors of mitochondrial electron transport chain and glucose catabolism synergistically suppress ATP production and impair cellular viability (Ulanovskaya et al., 2008, 2011; Liu, et al. 2001). We therefore used DLD1 or CHO-K1 cells in combination with an oxidative phosphorylation inhibitor to identify GLUT1 and GLUT2 inhibitors. Cell lines were maintained in DMEM medium supplemented with 10% FCS and 1% Penicillin-Streptomycin solution and 2% Glutamax. The cells were treated with trypsin and seeded into 384 plates at a density of 4000 cells/well. The cells were then cultured overnight in glucose free media containing 1% FCS to reduce intracellular ATP levels. […] The CellTiter-Glo® Luminescent Cell Viability Assay from Promega was then used to measure ATP Levels.
For orientation: IC50 means the concentration needed to halve the response being measured. `Cc1ccc2nc(C)cc(C(=O)Nc3c(C(F)(F)F)nn(Cc4ccc(F)c(F)c4)c3C)c2c1` [Example 203, N-[1-(3,4-difluorobenzyl)-5-methyl-3-(trifluoromethyl)-1H-pyrazol-4-yl]-2,6-dimethylquinoline-4-carboxamide]: the concentration for half-maximal inhibition (IC50) is 602 nM.
For the compound `Cc1nn(Cc2ccc(C#N)cc2)c(C)c1NC(=O)c1cc(C(N)=O)nc2cccc(C)c12` [Example 257, N^4-[1-(4-cyanobenzyl)-3,5-dimethyl-1H-pyrazol-4-yl]-5-methylquinoline-2,4-dicarboxamide], the half-inhibitory concentration (IC50) stood at 2.4 nM.
To `COCCNC(=O)c1ccc(Cn2nc(C(F)(F)F)c(NC(=O)c3cc(C(N)=O)nc4cc(F)ccc34)c2C)cc1` [Example 373, 7-fluoro-N^4-[1-{4-[(2-methoxyethyl)carbamoyl]benzyl}-5-methyl-3-(trifluoromethyl)-1H-pyrazol-4-yl]quinoline-2,4-dicarboxamide] belongs 17.5 nM; to `Cc1cc(C(=O)Nc2c(C)nn(Cc3ccc(F)cc3)c2C)c2cccc(C)c2n1` [Example 86, N-[1-(4-fluorobenzyl)-3,5-dimethyl-1H-pyrazol-4-yl]-2,8-dimethylquinoline-4-carboxamide], 257 nM.
As to `Cc1nn(Cc2ccccc2C#N)c(C)c1NC(=O)c1cc(C(N)=O)nc2cc(F)c(F)cc12` [Example 235, N^4-[1-(2-cyanobenzyl)-3,5-dimethyl-1H-pyrazol-4-yl]-6,7-difluoroquinoline-2,4-dicarboxamide], the IC50 amounted to 10.9 nM.
For the compound `COc1ccc(Cn2nc(C(F)(F)F)c(NC(=O)c3cc(C(N)=O)nc4cc(F)c(Cl)cc34)c2C)cc1` [Example 278, 6-chloro-7-fluoro-N^4-[1-(4-methoxybenzyl)-5-methyl-3-(trifluoromethyl)-1H-pyrazol-4-yl]quinoline-2,4-dicarboxamide], the IC50 was determined as 1.4 nM.
In the case of `Cc1nn(Cc2c(F)cccc2F)c(C)c1NC(=O)c1cc(C(N)=O)nc2ccccc12` [Example 1632] it was 10 nM; in that of `Cc1c(NC(=O)c2cc(C(F)(F)F)nc3ccc(Br)cc23)c(C(F)(F)F)nn1Cc1ccc(F)cc1` [Example 32, 6-bromo-N-[1-(4-fluorobenzyl)-5-methyl-3-(trifluoromethyl)-1H-pyrazol-4-yl]-2-(trifluoromethyl)quinoline-4-carboxamide], 20.5 nM; in that of `Cc1c(NC(=O)c2cc(C(N)=O)nc3cc(F)c(Cl)cc23)c(C(F)(F)F)nn1Cc1cccc(S(C)(=O)=O)c1` [Example 1638], 61.3 nM.
In the case of `Cc1nn(Cc2ccccc2C#N)c(C)c1NC(=O)c1cc(C(N)=O)nc2cc(F)c(Cl)cc12` [Example 215, 6-chloro-N^4-[1-(2-cyanobenzyl)-3,5-dimethyl-1H-pyrazol-4-yl]-7-fluoroquinoline-2,4-dicarboxamide] it was 1.6 nM.
Take `Cc1cnc2ccccc2c1C(=O)Nc1c(C)nn(Cc2ccc(F)cc2)c1C` [Example 1252]: the IC50 stood at 1870 nM.
As for `COC(=O)c1ccc(Cn2nc(C(F)(F)F)c(NC(=O)c3cc(C(N)=O)nc4cc(F)ccc34)c2C)cc1` [Example 367, methyl 4-{[4-{[(2-carbamoyl-7-fluoroquinolin-4-yl)carbonyl]amino}-5-methyl-3-(trifluoromethyl)-1H-pyrazol-1-yl]methyl}benzoate], the 50% inhibitory concentration (IC50) was determined as 2.3 nM.
With `Cc1c(NC(=O)c2cc(C(N)=O)nc3cc(F)ccc23)c(C(F)(F)F)nn1Cc1cccc(C#N)n1` [Example 1687], the half-maximal inhibitory concentration (IC50) was 128 nM.
`COc1ccc(Cn2nc(C(F)(F)F)c(NC(=O)c3cc(C(N)=O)nc4ccccc34)c2C)cc1` [Example 277, N^4-[1-(4-methoxybenzyl)-5-methyl-3-(trifluoromethyl)-1H-pyrazol-4-yl]quinoline-2,4-dicarboxamide]: the IC50 was 1.8 nM.
For the compound `Cc1nn(CC(=O)Nc2cccc(C#N)c2)c(C)c1NC(=O)c1cc(C(N)=O)nc2ccccc12` [Example 1691], the IC50 came to 556 nM.
Turning to `COc1ccc2nccc(C(=O)Nc3c(C)nn(Cc4ccc(F)cc4)c3C)c2c1` [Example 192, N-[1-(4-fluorobenzyl)-3,5-dimethyl-1H-pyrazol-4-yl]-6-methoxyquinoline-4-carboxamide], the IC50 came out at 177 nM.
In the case of `Cc1cc2c(C(=O)Nc3c(C(F)(F)F)nn(Cc4ccc(C#N)cc4)c3C)cc(C(N)=O)nc2cc1F` [Example 343, N^4-[1-(4-cyanobenzyl)-5-methyl-3-(trifluoromethyl)-1H-pyrazol-4-yl]-7-fluoro-6-methylquinoline-2,4-dicarboxamide], the 50% inhibitory concentration (IC50) came to 0.7 nM.
As for `CNC(=O)c1ccc(Cn2nc(C)c(NC(=O)c3cc(C(F)(F)F)nc4ccc(Br)cc34)c2C)nc1` [Example 1070], the IC50 was 20.2 nM.
On to `Cc1nn(Cc2ccc(C(=O)N(C)CCO)cc2)c(C)c1NC(=O)c1cc(C(F)(F)F)nc2ccc(Br)cc12` [Example 1186], for which the IC50 is 277 nM.
In the case of `Cc1ccc2nc(C)cc(C(=O)Nc3c(C)nn(Cc4cc(F)cc(F)c4)c3C)c2c1` [Example 1296], the 50% inhibitory concentration (IC50) was 11100 nM.
With `COc1cc(C(=O)Nc2c(C)nn(Cc3c(C)noc3C)c2C)c2ccccc2n1` [Example 1273], the IC50 is 3370 nM.
As to `Cc1nn(Cc2ccc(CC(=O)NCCN(C)C)cc2)c(C)c1NC(=O)c1cc(C(F)(F)F)nc2ccc(Br)cc12` [Example 1254], the IC50 turned out to be 1980 nM.
In the case of `Cc1c(NC(=O)c2cc(C(N)=O)nc3cc(F)ccc23)c(C(F)(F)F)nn1Cc1ccc(F)c(F)c1` [Example 1396], the IC50 stood at 4.6 nM.
To `COc1c(C)nc2ccccc2c1C(=O)Nc1c(C)nn(Cc2ccc(F)cc2)c1C` [Example 95, N-[1-(4-fluorobenzyl)-3,5-dimethyl-1H-pyrazol-4-yl]-3-methoxy-2-methylquinoline-4-carboxamide] belongs 309 nM; to `Cc1nn(Cc2c(F)cc(C#N)cc2F)c(C)c1NC(=O)c1cc(C(N)=O)nc2cc(F)ccc12` [Example 390, N^4-[1-(4-cyano-2,6-difluorobenzyl)-3,5-dimethyl-1H-pyrazol-4-yl]-7-fluoroquinoline-2,4-dicarboxamide], 5.5 nM; to `Cc1nn(Cc2ccc(C#N)cn2)c(C)c1NC(=O)c1cc(C(N)=O)nc2ccccc12` [Example 355, N^4-{1-[(5-cyanopyridin-2-yl)methyl]-3,5-dimethyl-1H-pyrazol-4-yl}quinoline-2,4-dicarboxamide], 3.9 nM.
Consider `Cc1ccc2nc(C)cc(C(=O)Nc3c(C)nn(Cc4ccccc4)c3C)c2c1` [Example 92, N-(1-benzyl-3,5-dimethyl-1H-pyrazol-4-yl)-2,6-dimethylquinoline-4-carboxamide], for which the IC50 is 292 nM.
On to `Cc1ccc2nc(C)cc(C(=O)Nc3c(C)nn(Cc4ccc(C#N)nc4)c3C)c2c1` [Example 201, N-{1-[(6-cyanopyridin-3-yl)methyl]-3,5-dimethyl-1H-pyrazol-4-yl}-2,6-dimethylquinoline-4-carboxamide], for which the IC50 was 557 nM.
In the case of `Cc1nn(Cc2ccc(F)cc2F)c(C)c1NC(=O)c1cc(C(F)(F)F)nc2ccc(Br)cc12` [Example 41, 6-bromo-N-[1-(2,4-difluorobenzyl)-3,5-dimethyl-1H-pyrazol-4-yl]-2-(trifluoromethyl)quinoline-4-carboxamide] it was 30 nM; in that of `Cc1nn(Cc2cc(C3CC3)on2)c(C)c1NC(=O)c1cc(C(N)=O)nc2ccccc12` [Example 419, N^4-{1-[(5-cyclopropyl-1,2-oxazol-3-yl)methyl]-3,5-dimethyl-1H-pyrazol-4-yl}quinoline-2,4-dicarboxamide], 4.2 nM.
On to `Cc1nn(Cc2ccc(F)cc2)c(C)c1NC(=O)c1cc(C(F)(F)F)nc2ccc(Br)cc12` [Example 9, 6-bromo-N-[1-(4-fluorobenzyl)-3,5-dimethyl-1H-pyrazol-4-yl]-2-(trifluoromethyl)quinoline-4-carboxamide], for which the IC50 was 6.2 nM.
With `Cc1c(NC(=O)c2cc(C(N)=O)nc3cc(F)c(F)cc23)c(C(F)(F)F)nn1Cc1ccc(C#N)cc1` [Example 216, N^4-[1-(4-cyanobenzyl)-5-methyl-3-(trifluoromethyl)-1H-pyrazol-4-yl]-6,7-difluoroquinoline-2,4-dicarboxamide], the IC50 came to 2.1 nM.
For the compound `Cc1c(NC(=O)c2cc(C(F)(F)F)nc3ccc(Br)cc23)c(C(F)(F)F)nn1Cc1ccc(C#N)cc1F` [Example 1358], the IC50 was found to be 4.3 nM.
Take `COc1cccc(Cn2nc(C)c(NC(=O)c3cc(C)nc4ccc(C)cc34)c2C)c1` [Example 109, N-[1-(3-methoxybenzyl)-3,5-dimethyl-1H-pyrazol-4-yl]-2,6-dimethylquinoline-4-carboxamide]: the IC50 was determined as 688 nM.
Turning to `Cc1nn(Cc2c(F)cc(C#N)cc2F)c(C)c1NC(=O)c1cc(C(N)=O)nc2cc(F)c(Cl)cc12` [Example 392, 6-chloro-N^4-[1-(4-cyano-2,6-difluorobenzyl)-3,5-dimethyl-1H-pyrazol-4-yl]-7-fluoroquinoline-2,4-dicarboxamide], the IC50 was determined as 21.6 nM.
